Read-outs that look alike come from different tables or passages of the source.
Key:
Type in all cases: biochemical
human 17β-HSD1 = molecular target: T1, human 17β-HSD1 (Homo sapiens, UniProt P14061); experiment: Inhibition of human 17β-HSD1 (conversion of [3H]-E1 to E2, HPLC radioflow detection); details: for inhibition at 1 µM: read-out: % inhibition h17β-HSD1 @ 1 μM; for IC50: read-out: IC50 [nM] h17β-HSD1; for inhibition at 0.01 µM: read-out: % inhibition h17β-HSD1 @ 10 nM
T1 construct: For the partial purification of 17β-HSD1, the cytosolic fraction was precipitated with ammonium sulfate; from tissue; host or cells: human placenta, cytosolic fraction, ammonium sulfate precipitate
T1 sequence (P14061 1-328): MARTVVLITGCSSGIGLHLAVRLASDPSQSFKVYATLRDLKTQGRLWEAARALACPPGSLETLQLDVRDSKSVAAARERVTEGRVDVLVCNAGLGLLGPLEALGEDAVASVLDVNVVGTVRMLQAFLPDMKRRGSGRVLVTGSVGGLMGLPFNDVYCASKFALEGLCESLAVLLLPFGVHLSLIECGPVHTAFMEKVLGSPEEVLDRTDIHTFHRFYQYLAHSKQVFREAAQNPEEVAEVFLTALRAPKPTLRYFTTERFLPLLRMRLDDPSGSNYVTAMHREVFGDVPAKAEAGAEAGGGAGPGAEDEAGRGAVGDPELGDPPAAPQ

human 17β-HSD2 = molecular target: T2, human 17β-HSD2 (Homo sapiens, UniProt P37059); experiment: Inhibition of human 17β-HSD2 (conversion of [3H]-E2 to E1); details: for IC50: read-out: IC50 [nM] h17β-HSD2; for inhibition at 0.01 µM: read-out: % inhibition h17β-HSD2 @ 10 nM
T2 construct: 17β-HSD2 was obtained from the microsomal fraction; from tissue; host or cells: human placenta, microsomal fraction
T2 sequence (P37059 1-387): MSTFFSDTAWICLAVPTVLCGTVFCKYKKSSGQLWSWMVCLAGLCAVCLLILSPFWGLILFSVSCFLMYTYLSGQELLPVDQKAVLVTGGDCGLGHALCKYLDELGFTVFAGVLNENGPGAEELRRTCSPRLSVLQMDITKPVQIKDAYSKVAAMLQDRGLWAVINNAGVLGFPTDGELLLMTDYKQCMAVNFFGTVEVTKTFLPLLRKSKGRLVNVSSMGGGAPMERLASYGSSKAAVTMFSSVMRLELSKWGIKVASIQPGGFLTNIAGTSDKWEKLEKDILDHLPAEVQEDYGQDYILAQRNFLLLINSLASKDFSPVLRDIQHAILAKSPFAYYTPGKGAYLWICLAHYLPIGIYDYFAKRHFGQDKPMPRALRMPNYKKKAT
Procedure: Fresh human placenta was homogenized, and cytosolic fraction and microsomes were separated by differential centrifugation at 1,000 g, 10,000 g and 150,000 g.
(§1) The conversion rate was calculated after analysis of the resulting chromatograms according to the following equation: % conversion=[% E1/(% E1+% E2)]×100

mouse 17β-HSD2 = molecular target: T3, mouse 17β-HSD2 (Mus musculus, UniProt P51658); experiment: Inhibition of mouse 17β-HSD2 (liver microsomal fraction); details: for inhibition at 0.05 µM: read-out: % inhibition m17β-HSD2 @ 50 nM; for % inhibition m17β-HSD2 @ 50 nM: 0.05 µM
T3 construct: The pellet fractions containing the microsomal 17β-HSD2 were used for the determination of E1 formation; from tissue; host or cells: mouse liver, microsomal fraction
T3 sequence (P51658 1-381): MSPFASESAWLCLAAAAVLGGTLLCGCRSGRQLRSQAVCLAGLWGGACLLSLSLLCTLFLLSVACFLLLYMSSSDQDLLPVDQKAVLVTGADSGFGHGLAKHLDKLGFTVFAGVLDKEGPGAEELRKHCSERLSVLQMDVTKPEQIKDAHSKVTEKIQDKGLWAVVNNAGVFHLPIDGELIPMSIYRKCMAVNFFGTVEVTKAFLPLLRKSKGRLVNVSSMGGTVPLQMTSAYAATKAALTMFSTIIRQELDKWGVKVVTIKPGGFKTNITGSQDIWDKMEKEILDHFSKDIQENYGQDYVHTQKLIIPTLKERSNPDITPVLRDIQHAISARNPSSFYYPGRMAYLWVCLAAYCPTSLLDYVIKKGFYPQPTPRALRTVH
Procedure: Microsomal 17β-HSD2 fractions were obtained from mouse or rat liver. Fresh liver tissues were processed as described for the human placental 17β-HSD2 preparation. The pellet fractions containing the microsomal 17β-HSD2 were used for the determination of E1 formation.
as §1

[1] = human placental cytosolic enzyme, E1 500 nM, NADH, Tables 1, 4-11

Row | inhibition at 0.01 µM (human 17β-HSD2) [%] | inhibition at 0.01 µM (human 17β-HSD1) [%] | inhibition at 0.05 µM (mouse 17β-HSD2) [%] | SMILES | also measured
1 | – | – | – | O=C(c1cccc(O)c1)c1ccc(-c2ccc(F)cc2F)s1 [A, reference compound] | inhibition at 1 µM (human 17β-HSD1): 32%
2 | – | – | – | O=C(c1ccc(-c2ccncc2)s1)c1c(F)ccc(O)c1F [Compound 8, (2,6-Difluoro-3-hydroxy-phenyl)-(5-pyridin-4-yl-thiophen-2-yl)-methanone] | inhibition at 1 µM (human 17β-HSD2; read-out: % inhibition h17β-HSD2 @ 1 μM): 49%; inhibition at 1 µM (human 17β-HSD1): 27%
3 | – | – | – | CC(C)Oc1ccc(-c2ccc(C(=O)c3c(F)ccc(O)c3F)s2)cc1C#N [Compound 18, 5-[5-(2,6-Difluoro-3-hydroxy-benzoyl)-thiophen-2-yl]-2-isopropoxy-benzonitrile] | IC50 (human 17β-HSD2): 19 nM; IC50 (human 17β-HSD1): 8 nM
4 | – | – | – | COc1c(C)cc(-c2ccc(C(=O)c3c(F)ccc(O)c3F)s2)cc1Cl [Compound 26, [5-(3-Chloro-4-methoxy-5-methyl-phenyl)-thiophen-2-yl]-(2,6-difluoro-3-hydroxy-phenyl)-methanone] | IC50 (human 17β-HSD1; [1]): 0.4 nM
5 | – | – | – | Cc1cc(-c2ccc(C(=O)c3c(F)ccc(O)c3F)s2)cc(Cl)c1O [Compound 27, [5-(3-Chloro-4-hydroxy-5-methyl-phenyl)-thiophen-2-yl]-(2,6-difluoro-3-hydroxy-phenyl)-methanone] | IC50 (human 17β-HSD1): 0.2 nM
6 | 87 | 47 | – | COc1ccc(-c2ccc(C(=O)c3cc(F)c(F)c(O)c3F)s2)cc1 [Compound 51, (5-(4-Methoxyphenyl)thiophen-2-yl)(2,4,5-trifluoro-3-hydroxyphenyl)methanone] | –
7 | 47 | 75 | 15 | COc1cccc(-c2ccc(C(=O)c3cc(F)c(F)c(O)c3F)s2)c1 [Compound 52, (5-(3-Methoxyphenyl)thiophen-2-yl)(2,4,5-trifluoro-3-hydroxyphenyl)methanone] | –
8 | 96 | 81 | 34 | COc1ccccc1-c1ccc(C(=O)c2cc(F)c(F)c(O)c2F)s1 [Compound 53, (5-(2-Methoxyphenyl)thiophen-2-yl)(2,4,5-trifluoro-3-hydroxyphenyl)methanone] | –
9 | 89 | 31 | 30 | CC(=O)Nc1cccc(-c2ccc(C(=O)c3cc(F)c(F)c(O)c3F)s2)c1 [Compound 54, N-(3-(5-(2,4,5-Trifluoro-3-hydroxybenzoyl)thiophen-2-yl)phenyl)acetamide] | –
10 | 68 | 12 | 23 | Nc1ccccc1-c1ccc(C(=O)c2cc(F)c(F)c(O)c2F)s1 [Compound 55, (5-(2-Aminophenyl)thiophen-2-yl)(2,4,5-trifluoro-3-hydroxyphenyl)methanone] | –
11 | 93 | 71 | – | O=C(c1ccc(-c2ccccc2)s1)c1cc(F)c(F)c(O)c1F [Compound 56, (5-Phenylthiophen-2-yl)(2,4,5-trifluoro-3-hydroxyphenyl)methanone] | –
12 | 60 | 14 | – | Cc1ccc(-c2ccc(C(=O)c3cc(F)c(F)c(O)c3F)s2)cc1N [Compound 57, (5-(3-Amino-4-methylphenyl)thiophen-2-yl)(2,4,5-trifluoro-3-hydroxyphenyl)methanone] | –
13 | 68 | 48 | 27 | Nc1cc(-c2ccc(C(=O)c3cc(F)c(F)c(O)c3F)s2)ccc1O [Compound 59, (5-(3-Amino-4-hydroxyphenyl)thiophen-2-yl)(2,4,5-trifluoro-3-hydroxyphenyl)methanone] | –
14 | 51 | 13 | 23 | COc1ccc(-c2ccc(C(=O)c3cc(F)c(F)c(O)c3F)s2)cc1N [Compound 60, (5-(3-Amino-4-methoxyphenyl)thiophen-2-yl)(2,4,5-trifluoro-3-hydroxyphenyl)methanone] | –
15 | 68 | 48 | 60 | O=C(c1ccc(-c2ccc3[nH]ccc3c2)s1)c1cc(F)c(F)c(O)c1F [Compound 61, (5-(1H-Indol-5-yl)thiophen-2-yl)(2,4,5-trifluoro-3-hydroxyphenyl)methanone] | –
16 | 62 | 0 | 28 | CC(=O)Nc1ccc(-c2ccc(C(=O)c3cc(F)c(F)c(O)c3F)s2)cc1 [Compound 64, N-(4-(5-(2,4,5-trifluoro-3-hydroxybenzoyl)thiophen-2-yl)phenyl)acetamide] | –
17 | 62 | 15 | – | O=C(c1ccc(-c2cccnc2)s1)c1cc(F)c(F)c(O)c1F [Compound 65, (5-(Pyridin-3-yl)thiophen-2-yl)(2,4,5-trifluoro-3-hydroxyphenyl)methanone] | –
18 | 83 | 22 | – | O=C(c1ccc(-c2ccc3cccnc3c2)s1)c1cc(F)c(F)c(O)c1F [Compound 66, (5-(Quinolin-7-yl)thiophen-2-yl)(2,4,5-trifluoro-3-hydroxyphenyl)methanone] | –
19 | 86 | 30 | – | O=C(c1ccc(-c2ccc3[nH]cnc3c2)s1)c1cc(F)c(F)c(O)c1F [Compound 67, (5-(1H-Benzo[d]imidazol-5-yl)thiophen-2-yl)(2,4,5-trifluoro-3-hydroxyphenyl)methanone] | –
20 | 95 | 72 | 32 | O=C(c1ccc(-c2cccc(O)c2)s1)c1cc(F)c(F)c(O)c1F [Compound 69, (5-(3-Hydroxyphenyl)thiophen-2-yl)(2,4,5-trifluoro-3-hydroxyphenyl)methanone] | –
21 | 100 | 19 | – | O=C(c1ccc(-c2ccccc2O)s1)c1cc(F)c(F)c(O)c1F [Compound 70, (5-(2-Hydroxyphenyl)thiophen-2-yl)(2,4,5-trifluoro-3-hydroxyphenyl)methanone] | –
22 | – | – | 79 | Cc1cc(-c2ccc(C(=O)c3cc(F)cc(O)c3C)s2)cc(C)c1O [Compound 71, (5-(4-Hydroxy-3,5-dimethylphenyl)thiophen-2-yl)(5-fluoro-3-hydroxy-2-methylphenyl)methanone] | IC50 (human 17β-HSD2): 50 nM; IC50 (human 17β-HSD1; [1]): 12.6 nM; % inhibition m17β-HSD2 @ 50 nM (mouse 17β-HSD2): 79% @ 50 nM
23 | – | – | 22 | Cc1cc(-c2ccc(C(=O)c3cc(F)c(F)c(O)c3C)s2)cc(C)c1O [Compound 72, (4,5-Difluoro-3-hydroxy-2-methylphenyl)(5-(4-hydroxy-3,5-dimethylphenyl)thiophen-2-yl)methanone] | IC50 (human 17β-HSD2): 159 nM; IC50 (human 17β-HSD1; [1]): 44 nM; % inhibition m17β-HSD2 @ 50 nM (mouse 17β-HSD2): 22% @ 50 nM
24 | – | – | – | Cc1ccc(C(=O)c2cc(F)c(F)c(O)c2F)s1 [Compound 73, (5-Methylthiophen-2-yl)(2,4,5-trifluoro-3-hydroxyphenyl)methanone] | inhibition at 0.1 µM (human 17β-HSD1; read-out: % inhibition h17β-HSD1 @ 100 nM, compound 100 nM): 9.1%
25 | 72 | 20 | – | NS(=O)(=O)Oc1ccc(-c2ccc(C(=O)c3cc(F)c(F)c(O)c3F)s2)cc1 [Compound 74, 4-(5-(2,4,5-Trifluoro-3-hydroxybenzoyl)thiophen-2-yl)phenyl sulfamate] | –
26 | 45 | 100 | – | COc1c(Cl)cc(-c2ccc(C(=O)c3c(Cl)ccc(O)c3F)s2)cc1Cl [Compound 77, (6-Chloro-2-fluoro-3-hydroxyphenyl)(5-(3,5-dichloro-4-methoxyphenyl)thiophen-2-yl)methanone] | –
27 | – | – | – | Nc1cccc(-c2ccc(C(=O)c3cccc(O)c3)s2)c1 [F, reference compound] | inhibition at 1 µM (human 17β-HSD2; read-out: IC50 [nM] or % inhibition h17β-HSD1 (second column so headed, Table 6): % @ 1 μM): 68%; inhibition at 1 µM (human 17β-HSD1): 77%
